From BindingDB's records for patent US12509446 (Rottapharm Biotech, 2025) come the findings set out here.

Assay [1] has as its target Vascular endothelial growth factor receptor 2 (Homo sapiens, UniProt P35968). The assay can be described thus: In Vitro Kinase Activity Assay. The method, then: Table 12: The VEGFR2 kinase inhibitory activity of representative examples of compounds of Formula (I) assays was evaluated in Eurofins Cerep (France). The concentration range of the inhibitors under investigation was from 10−8 M up to 10−5 M final concentration. Some compounds were re-tested in a concentration-range starting from 10−9 M. The results are expressed as a percent of control activity (in the absence of test compound) and the IC50 values were determined by non-linear regression analysis of the inhibition/concentration curves generated with mean replicate values.

Assay [2] concerns the target Tyrosine-protein kinase Fyn (Homo sapiens, UniProt P06241). In words: In Vitro Kinase Activity Assay. As for the experimental part: Table 11: The Fyn kinase inhibitory activity of representative examples of compounds of Formula (1) was evaluated by Z′-LYTE™ Kinase Assay Platform (Invitrogen). Compounds were evaluated towards active Fyn (full length active, molecular weight 87.1 kDa; Invitrogen). […] Samples representing the 0% inhibition (or total enzymatic activity) were in the presence of compound diluent (1% DMSO final in Reaction Buffer 50 mMHepes, 10 mM MgCl2, 1 mM EGTA, 0.01% Brij-35, pH 7.5). The kinase reaction was carried out in a total volume of 10 μl, for 60 minutes at 25° C. The 0% Phosphorylation (i.e. no ATP) and 100% Phosphorylation Assay Controls, included in each plate, allowed to calculate the percent phosphorylation achieved in the specific reaction well. Results are expressed as percentage of inhibition and the IC50 values were calculated by non-linear curve fitting using GraphPad™ Prism software (version 6 for Windows).

Usually pIC50 stands for the negative decadic logarithm of the IC50, by convention in mol/L. Lower therefore signals a high IC50.

pIC50: −log10 of the molar value.

Chain of Vascular endothelial growth factor receptor 2 (P35968 whole entry): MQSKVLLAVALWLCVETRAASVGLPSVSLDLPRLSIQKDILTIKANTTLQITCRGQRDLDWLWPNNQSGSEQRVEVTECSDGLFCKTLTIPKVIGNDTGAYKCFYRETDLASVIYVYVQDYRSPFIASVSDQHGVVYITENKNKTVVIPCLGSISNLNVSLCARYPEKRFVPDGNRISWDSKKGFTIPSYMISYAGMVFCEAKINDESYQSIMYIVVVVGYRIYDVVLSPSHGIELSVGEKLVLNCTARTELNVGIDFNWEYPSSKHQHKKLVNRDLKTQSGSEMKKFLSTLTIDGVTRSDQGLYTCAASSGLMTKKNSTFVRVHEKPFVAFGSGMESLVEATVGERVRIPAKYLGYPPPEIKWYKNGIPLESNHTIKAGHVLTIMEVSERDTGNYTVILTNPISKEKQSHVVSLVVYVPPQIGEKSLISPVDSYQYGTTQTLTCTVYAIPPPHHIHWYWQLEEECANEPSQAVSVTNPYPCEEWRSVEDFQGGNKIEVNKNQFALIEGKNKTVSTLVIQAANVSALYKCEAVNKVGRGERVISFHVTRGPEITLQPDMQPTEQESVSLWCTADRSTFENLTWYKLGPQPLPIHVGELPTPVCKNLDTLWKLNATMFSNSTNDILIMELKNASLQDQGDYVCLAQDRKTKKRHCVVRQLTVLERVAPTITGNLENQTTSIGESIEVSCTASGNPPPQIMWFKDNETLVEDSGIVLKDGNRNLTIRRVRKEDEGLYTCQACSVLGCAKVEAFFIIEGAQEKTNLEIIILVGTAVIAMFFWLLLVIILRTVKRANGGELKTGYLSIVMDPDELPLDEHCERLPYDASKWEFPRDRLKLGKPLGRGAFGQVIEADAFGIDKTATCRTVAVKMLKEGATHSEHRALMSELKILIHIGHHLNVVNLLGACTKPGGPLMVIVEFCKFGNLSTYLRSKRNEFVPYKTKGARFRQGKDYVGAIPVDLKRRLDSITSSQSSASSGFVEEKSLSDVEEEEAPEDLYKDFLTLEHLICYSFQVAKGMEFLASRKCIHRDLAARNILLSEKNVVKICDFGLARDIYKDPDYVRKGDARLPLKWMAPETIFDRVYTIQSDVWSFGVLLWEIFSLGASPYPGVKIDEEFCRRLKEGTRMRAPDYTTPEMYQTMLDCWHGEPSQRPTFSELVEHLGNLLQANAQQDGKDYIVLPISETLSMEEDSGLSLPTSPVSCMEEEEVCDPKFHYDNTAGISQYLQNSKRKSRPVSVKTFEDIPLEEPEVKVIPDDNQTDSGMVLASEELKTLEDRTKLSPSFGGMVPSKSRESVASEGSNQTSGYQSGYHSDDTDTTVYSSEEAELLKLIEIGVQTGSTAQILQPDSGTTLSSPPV
Chain of Tyrosine-protein kinase Fyn (P06241 whole entry): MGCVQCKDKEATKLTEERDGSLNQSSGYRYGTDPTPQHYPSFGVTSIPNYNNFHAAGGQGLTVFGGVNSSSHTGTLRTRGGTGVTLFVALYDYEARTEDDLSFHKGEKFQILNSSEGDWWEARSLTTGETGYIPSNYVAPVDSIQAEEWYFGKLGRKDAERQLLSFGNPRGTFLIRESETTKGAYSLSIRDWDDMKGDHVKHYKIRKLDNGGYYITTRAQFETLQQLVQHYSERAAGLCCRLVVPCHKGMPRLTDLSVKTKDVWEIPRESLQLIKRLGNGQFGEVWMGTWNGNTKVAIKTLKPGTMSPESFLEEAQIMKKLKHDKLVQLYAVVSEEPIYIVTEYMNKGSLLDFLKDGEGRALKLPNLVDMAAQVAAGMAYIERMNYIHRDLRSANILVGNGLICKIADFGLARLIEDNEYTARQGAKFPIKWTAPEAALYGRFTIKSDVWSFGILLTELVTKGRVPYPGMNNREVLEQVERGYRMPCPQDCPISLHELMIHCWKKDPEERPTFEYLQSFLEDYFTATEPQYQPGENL

In the case of `CCN1CCN(c2cc(Nc3cc(CCc4ccc(F)c(NC(=O)c5cccc(C(F)(F)F)c5)c4)n[nH]3)nc(C)n2)CC1` [US12509446, Compound 45], the pIC50 was above 8.00 in assay [1] and 7.66 in assay [2].

As to `Cc1nc(Nc2cc(CCc3ccc(F)c(NC(=O)c4cccc(C(F)(F)F)c4)c3)n[nH]2)cc(N2CCN(CCO)CC2)n1` [US12509446, Compound 44], the pIC50 is above 8.00 in assay [1] and 8.10 in assay [2].

Regarding `CCN1CCN(c2cc(Nc3cc(CCc4cc(NC(=O)c5cccc(C(F)(F)F)c5)ccc4F)n[nH]3)nc(C)n2)CC1` [US12509446, Compound 29], the pIC50 in assay [1] is above 8.00; in assay [2] it was 7.82.

Take `Cc1nc(Nc2cc(CCc3cc(NC(=O)c4cccc(C(F)(F)F)c4)ccc3F)n[nH]2)cc(N2CC(O)C2)n1` [US12509446, Compound 31]: the pIC50 is 7.74 in assay [1] and 8.00 in assay [2].

As to `Cc1nc(Nc2cc(CCc3ccc(F)c(NC(=O)c4cccc(C(F)(F)F)c4)c3)n[nH]2)cc(N2CC(O)C2)n1` [US12509446, Compound 46], the figures for the pIC50 in assay [1] and in assay [2] were above 8.00 and 7.74, respectively.

`Cc1nc(Nc2cc(CCc3cc(NC(=O)c4cccc(C(F)(F)F)c4)ccc3F)n[nH]2)cc(N2CCN(CCO)CC2)n1` [US12509446, Compound 30]: the pIC50 in assay [1] was above 8.00; in assay [2], 8.22.

In the case of `Cc1ccc(NC(=O)c2cccc(S(C)(=O)=O)c2)cc1CCc1cc(Nc2cnccn2)[nH]n1` [US12509446, Compound 1], the pIC50 was above 8.00 in assay [1] and 7.44 in assay [2].
